Lip = lipoyl residue of R or S configuration
Experiments:
[1] = test system: IL-1α-induced IL-8 production; assay: Inhibition of IL-1α-induced IL-8 production (ELISA) in normal human dermal fibroblasts; format: cell-based; conditions: concomitant with IL-1α for 24 hours
[2] = test system: normal human melanocytes; assay: Comet test: internal photo protection against UVA- and UVB-induced DNA strand breaks; format: cell-based; conditions: peptide 3 × 10^−8 M, 2 h at 37° C., non treated cells 100%, irradiated cells 0%; for CGP (%) coefficient of genomic protection against UVA: then UVA 365 nm, 0.8 J/cm^2; for CGP (%) coefficient of genomic protection against UVB: then UVB 312 nm, 0.06 J/cm^2
Method: The proto protective ability of peptides A1 and B1 against UVA and UVB was evaluated using a Comet test according to the protocol of De Meo (De Meo et al. Mutation Res. 1991; 260; 295-306).
The comet test enables the quantification of DNA strand breaks induced by a genotoxic agent.
Material: Primary culture of normal human melanocytes.
Treatment: Cells were treated for 2 h at 37° C. with peptides A1 and B1 separately at 3×10^−8 M and then exposed to UVA (365 nm, 0.8 J/cm^2) or UVB (312 nm/0.06 J/cm^2).
Results are reported in Table 1 below as a coefficient of genomic protection against UVA or UVB (CGP %).

[3] = test system: Keratinocytes NCTC-2544; assay: UVA-induced oxidative lesions (formation of 8-oxo D guanosine) in keratinocytes; format: cell-based, human; conditions: 24 h + 30 min re-stimulation, UVA 15 J/cm^2, UVA-irradiated cells 100%, non treated cells 0%
Method: Material: Keratinocytes NCTC-2544.
Treatment: Keratinocytes were incubated with either peptide (A1 or B1) for 24 h, re-stimulated with the same peptide for 30 minutes and then irradiated with UVA (15 J/cm^2).
Results: The cells exposed to UVs are subjected to damages/lesions induced by oxidative stress. The oxydative damages or lesions were monitored with the formation of 8-oxo D guanosine and the effect of the peptides was expressed as a percentage of inhibition of the production of oxidative damages/lesions.

[4] = test system: glutathione; assay: Glutathione regeneration in the presence of a superoxide anion by fluorometry (HRP/scopoletine); format: biochemical; conditions: glutathione 10^−4 to 5×10^−5 M with or without peptide 10^−4 to 5×10^−5 M, HRP 3 μg/ml, reading at 180 seconds
From the text: Peroxydase (Horseradish peroxydase or HRP) transforms H2O2 into O2^•− which reacts on fluorescent scopoletine and transforms it into a non fluorescent species. A rapid decrease in fluorescence is observed as a function of O2^•− release. In the presence of a scavenger for radical O2^•− (such as glutathione), the decrease in fluorescence is less pronounced. (Antioxidant Characterisation, Methodology and Mechanism, Barry Halliwell, Biochemical Pharmacology, 49, 1341-1348, (1995)) and (The scopoletin assay for hydrogen peroxide, a review and a better method, Jean T. Corbett, J. Biochem. Biophys. Methods, 18, 297-308 (1989)).
Material: A fluorometer set at 394 nm (excitation state) with a slot of 6, and 455 nm (emitting state) with a slot of 8 was used. Continuous data collection was made over a period of 180 seconds. The data obtained at the end of 180 seconds was compared to that obtained with a negative control (without scavenger) and that with a positive control (without free radicals).
The tested mixture comprised HRP (3 μg/ml), scopoletine (5×10^−6M), glutathione (10^−4 to 5×10^−5M), with or without peptide B1 (10^−4 to 5×10^−5 M). An oxygenated water (H2O2) solution was added immediately before reading the first fluorescence measure.
Results are presented in FIG. 3 and are expressed as the percentage of radical scavenging activity as compared to the positive control. […]

For Lip-His-DPhe-Arg-Trp-NH2 [Peptide B1], the “INHIBITION of IL-8 production” value ([1]; peptide 10 pM) was 56%, the “INHIBITION of IL-8 production” value ([1]; peptide 1 nM) was 60% and the “CGP (%) coefficient of genomic protection against UVA” value [2] was 69.9%. The “CGP (%) coefficient of genomic protection against UVB” value [2] was 85.8%, the “% INHIBITION of the production of oxidative damages/lesions” value ([3]; peptide 1 nM) was −50% and the “% INHIBITION of the production of oxidative damages/lesions” value ([3]; peptide 100 nM) was −76%. For the same substance, the “glutathione regeneration activity (radical scavenging activity compared to positive control)” value [4] was “displayed a glutathione regeneration activity”.

“Lip-Lys-Gly-His-Lys-NH2 (Lip-KGHK-NH2) [Peptide A1]” was tested, and the “CGP (%) coefficient of genomic protection against UVA” value [2] was 93%, the “CGP (%) coefficient of genomic protection against UVB” value [2] was 46.2% and the “% INHIBITION of the production of oxidative damages/lesions” value ([3]; peptide 1 nM) was −27%. The “% INHIBITION of the production of oxidative damages/lesions” value ([3]; peptide 100 nM) was −53%.

From US20100310484A1, “NOVEL PEPTIDES, USE THEREOF IN COSMETIC AND COSMECEUTIC APPLICATIONS, AND COMPOSITIONS COMPRISING SAME” (Innovactiv Inc., priority 2007, published 2010)
